Assays:
Assay in all cases: relative viability (nuclei count vs DMSO), 5 days (fraction); higher = more cells survive
[1] = compound: CC(O)(CS(=O)(=O)c1ccc(F)cc1)C(=O)Nc1ccc(C#N)c(C(F)(F)F)c1 [Bicalutamide] + Cc1cc(Nc2cc(N3CCN(C)CC3)nc(Sc3ccc(NC(=O)C4CC4)cc3)n2)n[nH]1 [Tozasertib] (partner 0.1 µM)
Summary of the method: (§1)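 Dosing by pin tool came one day after lung cancer cell lines were seeded in 1536-well plates, using either one drug or a fixed anchor-drug dose plus five library-drug doses (not always all listed) in √10 steps. After 5 days, nuclei were counted on 4× images. Relative viability is treated-well nuclei count divided by vehicle-well nuclei count, and values are medians of duplicate plates.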

[2] = compound: C(C(=O)C(=O)O)Br [Bromopyruvate] + CS(=O)(=O)CCNCc1ccc(-c2ccc3ncnc(Nc4ccc(OCc5cccc(F)c5)c(Cl)c4)c3c2)o1 [Lapatinib] (partner 2 µM)
Summary of the method: as §1

[3] = compound: CC(O)(CS(=O)(=O)c1ccc(F)cc1)C(=O)Nc1ccc(C#N)c(C(F)(F)F)c1 [Bicalutamide] + Nc1ncn([C@H]2C[C@H](O)[C@@H](CO)O2)c(=O)n1 [Decitabine] (partner 2 µM)
Summary of the method: as §1

[4] = compound: C(C(=O)C(=O)O)Br [Bromopyruvate] + O=C(c1cc(Cc2n[nH]c(=O)c3ccccc23)ccc1F)N1CCN(C(=O)C2CC2)CC1 [Olaparib] (partner 8 µM)
Summary of the method: as §1

Cell Line | relative viability ([1]; first compound 0.08 µM) | relative viability ([1]; first compound 0.253 µM) | relative viability ([1]; first compound 0.8 µM) | relative viability ([1]; first compound 2.53 µM) | relative viability ([2]; first compound 1 µM) | relative viability ([2]; first compound 3.162 µM) | relative viability ([2]; first compound 10 µM) | relative viability ([2]; first compound 31.62 µM) | relative viability ([2]; first compound 100 µM) | relative viability ([3]; first compound 0.08 µM) | relative viability ([3]; first compound 0.253 µM) | relative viability ([3]; first compound 0.8 µM) | relative viability ([3]; first compound 2.53 µM) | relative viability ([4]; first compound 1 µM) | relative viability ([4]; first compound 3.162 µM) | relative viability ([4]; first compound 10 µM) | relative viability ([4]; first compound 31.62 µM) | relative viability ([4]; first compound 100 µM)
201T | 1.01 | 0.917 | 0.962 | 0.793 | 1.03 | 1.06 | 1.03 | 0.942 | 1.02 | 0.87 | 0.847 | 0.857 | 0.889 | 0.862 | 0.824 | 0.86 | 0.84 | 0.88
A549 |  |  |  |  | 1.03 | 1.05 | 1.14 | 1.08 | 1 | 0.351 | 0.271 | 0.259 | 0.248 |  | 0.286 | 0.403 | 0.356 | 0.3
A-427 | 0.232 | 0.183 | 0.209 | 0.165 | 1.08 | 1.03 | 1.01 | 1.03 | 1.04 | 0.608 | 0.533 | 0.666 | 0.562 | 0.664 | 0.758 | 0.782 | 0.693 | 0.774
ABC-1 | 0.179 | 0.168 | 0.17 | 0.167 | 1.34 | 1.24 | 1.36 | 1.13 | 1.18 | 1.25 | 0.929 | 1.23 | 0.847 | 0.775 |  |  |  | 0.566
BEN | 0.475 | 0.533 | 0.527 | 0.487 | 0.617 | 0.649 | 0.744 | 0.777 | 0.649 | 0.736 | 0.658 | 0.838 | 0.7 | 0.96 | 0.994 | 1.46 | 1.03 | 0.99
CAL-12T | 0.267 | 0.332 | 0.324 | 0.373 | 0.669 | 0.698 | 0.794 | 0.748 | 0.902 |  |  |  |  | 0.654 | 0.661 | 0.697 | 0.725 | 0.65
COR-L23 | 0.253 | 0.196 | 0.172 | 0.179 | 0.744 | 0.869 | 1.43 | 0.846 | 0.87 | 0.476 | 0.389 | 0.455 | 0.367 | 0.398 | 0.342 | 0.349 | 0.319 | 0.129
COR-L 105 | 0.391 | 0.348 | 0.408 | 0.387 | 0.393 | 0.385 | 0.362 | 0.353 | 0.392 | 0.765 | 0.6 | 0.698 | 0.63 | 0.771 | 0.71 | 0.642 | 0.504 | 0.429
Calu-6 |  |  |  |  | 1.04 | 1.15 | 1.08 | 1.06 | 0.856 |  |  |  |  | 0.579 | 0.581 | 0.686 | 0.55 | 0.417
ChaGo-K-1 | 0.219 | 0.238 | 0.212 | 0.292 |  |  |  |  |  | 0.524 | 0.46 | 0.561 | 0.551 | 0.417 | 0.466 | 0.431 | 0.344 | 0.301
EBC-1 |  |  |  |  | 0.225 | 0.21 | 0.226 | 0.205 | 0.221 |  |  |  |  | 0.691 | 0.594 | 0.741 | 0.617 | 0.564
EKVX | 0.372 | 0.315 | 0.386 | 0.371 | 0.218 | 0.213 | 0.343 | 0.207 | 0.211 | 0.336 | 0.37 | 0.32 | 0.333 | 0.73 | 0.87 | 0.843 | 0.861 | 0.874
EMC-BAC-2 | 0.346 | 0.285 | 0.289 | 0.249 | 0.832 | 0.922 | 1 | 0.833 | 0.912 | 0.976 | 0.875 | 0.948 | 0.892 | 0.499 | 0.481 | 0.408 | 0.516 | 0.458
EPLC-272H | 0.238 | 0.224 | 0.25 | 0.237 | 1.02 | 1.06 | 0.839 | 0.916 | 1.05 | 0.384 | 0.373 | 0.382 | 0.342 | 0.783 | 0.885 | 0.971 | 0.932 | 0.699
H3255 | 0.743 | 0.439 |  | 0.604 | 0.272 | 0.321 | 0.239 | 0.249 | 0.273 | 0.601 | 0.571 | 0.668 | 0.525 | 0.579 | 0.591 | 0.558 | 0.563 | 0.571
HARA | 0.128 | 0.099 | 0.103 | 0.182 | 0.825 | 0.829 | 0.707 | 0.9 | 0.844 | 0.632 |  | 0.536 | 0.574 | 0.836 | 1.45 |  | 0.632 | 0.738
HCC-15 | 0.428 | 0.394 | 0.365 | 0.228 | 0.868 | 0.873 | 0.849 | 0.856 | 0.844 | 0.63 | 0.595 | 0.74 | 0.584 | 0.745 | 0.735 | 0.697 | 0.734 | 0.699
HCC-44 | 1.06 | 0.874 | 0.746 | 1.12 | 0.959 | 1.02 | 1.11 | 1.1 | 1.02 | 0.967 | 0.911 | 0.942 | 0.959 | 0.939 | 0.932 | 0.969 | 0.938 | 0.972
HCC-78 | 0.43 | 0.351 | 0.472 | 0.347 | 1.04 | 0.893 | 0.702 | 1.03 | 0.591 | 0.726 | 0.589 | 0.819 | 0.71 | 0.762 | 0.811 | 0.944 | 0.776 | 0.848
HCC-366 | 0.133 | 0.0841 | 0.0976 | 0.0526 | 1.03 | 1.02 | 1.24 | 1.01 | 1.05 | 0.369 | 0.284 | 0.351 | 0.327 | 0.365 | 0.323 | 0.345 | 0.321 | 0.284

— the supplement of paper PMC10307832
